From patent US20230141603A1, “BENZODIAZEPINE DERIVATIVES AS GABA A GAMMA1 PAM” (Hoffmann-La Roche Inc., priority 2021, published 2023) come the findings set out here.

The target in the assay is T1, h-GABAA α2β2γ1 (Homo sapiens, UniProt P47869+Q8N1C3).
T1 sequence (P47869 29-451): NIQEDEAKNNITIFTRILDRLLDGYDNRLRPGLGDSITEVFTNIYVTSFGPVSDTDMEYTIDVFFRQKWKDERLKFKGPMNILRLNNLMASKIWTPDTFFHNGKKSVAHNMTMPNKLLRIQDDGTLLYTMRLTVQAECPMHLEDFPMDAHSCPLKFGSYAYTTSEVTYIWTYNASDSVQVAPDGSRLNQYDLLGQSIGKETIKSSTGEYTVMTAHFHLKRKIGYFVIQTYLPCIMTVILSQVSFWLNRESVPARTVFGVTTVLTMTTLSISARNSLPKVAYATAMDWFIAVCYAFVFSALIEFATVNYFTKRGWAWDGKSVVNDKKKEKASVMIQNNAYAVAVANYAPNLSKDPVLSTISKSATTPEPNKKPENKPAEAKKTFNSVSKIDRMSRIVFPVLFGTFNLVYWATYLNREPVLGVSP
T1 sequence (P47870 25-512 partner limits assumed): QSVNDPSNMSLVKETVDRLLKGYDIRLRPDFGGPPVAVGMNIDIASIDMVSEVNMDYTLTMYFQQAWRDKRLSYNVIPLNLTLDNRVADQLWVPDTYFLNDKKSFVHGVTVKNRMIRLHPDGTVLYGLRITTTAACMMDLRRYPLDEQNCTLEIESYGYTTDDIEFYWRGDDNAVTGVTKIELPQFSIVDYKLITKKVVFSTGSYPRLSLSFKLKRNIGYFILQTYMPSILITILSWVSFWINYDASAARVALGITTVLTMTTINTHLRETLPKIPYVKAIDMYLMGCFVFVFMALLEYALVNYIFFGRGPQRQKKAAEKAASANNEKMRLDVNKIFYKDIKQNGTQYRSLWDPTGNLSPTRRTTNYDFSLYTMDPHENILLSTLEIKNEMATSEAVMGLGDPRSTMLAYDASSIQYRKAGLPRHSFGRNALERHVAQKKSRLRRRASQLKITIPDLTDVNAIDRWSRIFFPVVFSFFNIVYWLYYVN
T1 sequence (Q8N1C3 36-465): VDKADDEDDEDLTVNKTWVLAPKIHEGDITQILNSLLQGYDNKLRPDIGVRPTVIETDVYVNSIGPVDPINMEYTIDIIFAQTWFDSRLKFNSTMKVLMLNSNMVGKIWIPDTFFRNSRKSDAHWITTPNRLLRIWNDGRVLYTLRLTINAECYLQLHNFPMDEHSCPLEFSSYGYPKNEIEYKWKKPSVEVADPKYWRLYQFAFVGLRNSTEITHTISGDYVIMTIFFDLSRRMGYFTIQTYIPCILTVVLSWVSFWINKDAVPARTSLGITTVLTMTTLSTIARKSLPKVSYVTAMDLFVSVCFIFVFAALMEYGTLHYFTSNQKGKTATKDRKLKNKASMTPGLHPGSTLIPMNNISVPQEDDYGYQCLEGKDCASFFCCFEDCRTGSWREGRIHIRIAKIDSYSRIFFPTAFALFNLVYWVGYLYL
Kind of assay: Radioligand binding assay, [3H]RO7239181 competition, HEK293F membranes. Further details: signal peptide of human GABAA α5 subunit (Met1 to Ser31), replacing the α2 signal peptide (N); expressed in transfected cells; host or cells: HEK293F cells (ThermoFisher R79007), membranes. The protocol: The affinity of compounds at GABAA γ1 subunit-containing receptors was measured by competition for [^3H]RO7239181 (67.3 Ci/mmol; Roche) binding to membranes from HEK293F cells (ThermoFisher R79007) expressing human (transiently transfected) receptors of composition […], α2β2γ1, α1β2γ1.
Harvested pellets from HEK293F cells expressing the different GABAA receptor subtypes were resuspended in Mannitol Buffer pH 7.2-7.4 (Mannitol 0.29M, Triethylamine 10 mM, Acetic acid 10 mM, EDTA 1 mM plus protease inhibitors (20 tablets Complete, Roche Diagnostics Cat. No. 05 056 489 001 per liter)), washed two times and then resuspended at 1:10 to 1:15 dilution in the same buffer. Cell disruption was performed by stirring the suspension in a Parr vessel #4637 at 435 psi for 15 minutes, and then the suspensions were centrifuged at 1000×g for 15 minutes at 4° C. (Beckman Avanti J-HC; rotor JS-4.2). The supernatant (S1) was transferred in a 21 Schott flask and the pellet (P1) was resuspended with Mannitol Buffer up to 175 ml. The resuspended pellet was transferred into a 250 ml Corning centrifugal beaker and centrifuged at 1500×g for 10 minutes at 4° C. (Beckman Avanti J-HC; rotor JS-4.2). The supernatant (S1) was then transferred in the 21 Schott flask and the pellet was discarded. The supernatants (S1) were centrifuged in 500 ml Beckman polypropylene centrifugal beaker at 15′000×g for 30 minutes at 4° C. (Beckman Avanti J-20 XP; rotor JLA-10.500). The pellet (P2) was resuspended with Mannitol Buffer 1:1 and frozen at −80° C. The supernatant (S2) was centrifuged in 100 ml Beckman polypropylene centrifugal tubes at 48000×g for 50 minutes at 4° C. (Beckman Avanti J-20 XP; rotor JA-18). The supernatant (S3) was discarded and the pellet (P3) was resuspended with 1:1 Mannitol Buffer. The P2 and P3 protein concentration was determined with the BIORAD Standard assay method with bovine serum albumin as standard and measured on the NANO-Drop 1000. The membrane suspension was aliquots (500 μl per tube) and stored at −80° C. until required. Membrane homogenates were resuspended and polytronised (Polytron PT1200E Kinematica AG) in Potassium Phosphate 10 mM, KCl 100 mM binding buffer at pH 7.4 to a final assay concentration determined with a previous experiment.
Assays were incubated to equilibrium for 1 hour at 4° C. and then, membranes were filtered onto unifilter (96-well white microplate with bonded GF/C filters preincubated 20-50 minutes in 0.3% Polyethylenimine) with a Filtermate 196 harvester (Packard BioScience) and washed 4 times with cold Potassium Phosphate 10 mM pH 7.4, KCl 100 mM binding buffer. After drying, filter-retained radioactivity was detected by liquid scintillation counting. Ki values were calculated using Excel-Fit (Microsoft) and are the means of two determinations.
What is called Ki is the equilibrium dissociation constant of an inhibitor or competing ligand from its target. A high value points to a looser hold on the target. Compound `Cc1nnc2n1-c1ccc(Br)c(Cl)c1C(c1c(F)cccc1F)=NC2` [Example 1, 8-bromo-7-chloro-6-(2,6-difluorophenyl)-1-methyl-4H-[1,2,4]triazolo[4,3-a][1,4]benzodiazepine] showed a Ki of 8 nM.

As for `Fc1ccccc1C1=NCc2nnc(C3CC3)n2-c2ccc(Br)c(Cl)c21` [Example 2, 8-bromo-7-chloro-1-cyclopropyl-6-(2-fluorophenyl)-4H-[1,2,4]triazolo[4,3-a][1,4]benzodiazepine], the Ki was 47.9 nM.

As for `Fc1ccccc1C1=NCc2nnc(-c3cccnn3)n2-c2ccc(Br)c(Cl)c21` [Example 3, 8-bromo-7-chloro-6-(2-fluorophenyl)-1-pyridazin-3-yl-4H-[1,2,4]triazolo[4,3-a][1,4]benzodiazepine], the inhibition constant Ki was determined as 8.8 nM.

`Cc1nnc2n1-c1ccc(Cl)c(Cl)c1C(c1ccccc1F)=NC2` [Example 4, 7,8-dichloro-6-(2-fluorophenyl)-1-methyl-4H-[1,2,4]triazolo[4,3-a][1,4]benzodiazepine] registered a Ki of 65.8 nM.

On to `Cc1nnc2n1-c1ccc(Cl)c(Cl)c1C(c1c(F)cccc1F)=NC2` [Example 5, 7,8-dichloro-6-(2,6-difluorophenyl)-1-methyl-4H-[1,2,4]triazolo[4,3-a][1,4]benzodiazepine], for which the inhibition constant Ki was 6.6 nM.

In the case of `Cc1nnc2n1-c1ccc(C3CC3)c(Cl)c1C(c1c(F)cccc1F)=NC2` [Example 6, 7-chloro-8-cyclopropyl-6-(2,6-difluorophenyl)-1-methyl-4H-[1,2,4]triazolo[4,3-a][1,4]benzodiazepine], affinity was put at a Ki of 93.3 nM.

Compound `Fc1cccc(F)c1C1=NCc2nncn2-c2ccc(Br)c(Cl)c21` [Example 7, 8-bromo-7-chloro-6-(2,6-difluorophenyl)-4H-[1,2,4]triazolo[4,3-a][1,4]benzodiazepine] returned a Ki of 8.5 nM.

`Fc1ccccc1C1=NCc2nncn2-c2ccc(Br)c(Cl)c21` [Example 8, 8-bromo-7-chloro-6-(2-fluorophenyl)-4H-[1,2,4]triazolo[4,3-a][1,4]benzodiazepine]: the Ki turned out to be 47.6 nM.

Take `O=c1[nH]nc2n1-c1ccc(Cl)c(Cl)c1C(c1c(F)cccc1F)=NC2` [Example 9, 7,8-dichloro-6-(2,6-difluorophenyl)-2,4-dihydro-[1,2,4]triazolo[4,3-a][1,4]benzodiazepin-1-one]: the Ki stood at 8 nM.

`Fc1ccccc1C1=NCc2nnc(-c3cccnn3)n2-c2ccc(Cl)c(Cl)c21` [Example 10, 7,8-dichloro-6-(2-fluorophenyl)-1-pyridazin-3-yl-4H-[1,2,4]triazolo[4,3-a][1,4]benzodiazepine] yielded a Ki of 9.5 nM.

Compound `Fc1cccc(F)c1C1=NCc2nnc(C3CCOCC3)n2-c2ccc(Cl)c(Cl)c21` [Example 11, 7,8-dichloro-6-(2,6-difluorophenyl)-1-tetrahydropyran-4-yl-4H-[1,2,4]triazolo[4,3-a][1,4]benzodiazepine] displayed a Ki of 49.1 nM.

In the case of `Fc1cccc(F)c1C1=NCc2nnc(-c3ccncn3)n2-c2ccc(Cl)c(Cl)c21` [Example 12, 7,8-dichloro-6-(2,6-difluorophenyl)-1-pyrimidin-4-yl-4H-[1,2,4]triazolo[4,3-a][1,4]benzodiazepine], the Ki came out at 10.4 nM.

`O=c1[nH]nc2n1-c1ccc(Br)c(Cl)c1C(c1c(F)cccc1F)=NC2` [Example 13, 8-bromo-7-chloro-6-(2,6-difluorophenyl)-2,4-dihydro-[1,2,4]triazolo[4,3-a][1,4]benzodiazepin-1-one]: affinity was put at a Ki of 6.2 nM.

In turn, `Fc1cccc(F)c1C1=NCc2nnc(-c3cccnn3)n2-c2ccc(Cl)c(Cl)c21` [Example 14, 7,8-dichloro-6-(2,6-difluorophenyl)-1-pyridazin-3-yl-4H-[1,2,4]triazolo[4,3-a][1,4]benzodiazepine] returned a Ki of 3.4 nM.

`Fc1cccc(F)c1C1=NCc2nncn2-c2ccc(Cl)c(Cl)c21` [Example 15, 7,8-dichloro-6-(2,6-difluorophenyl)-4H-[1,2,4]triazolo[4,3-a][1,4]benzodiazepine]: the affinity corresponds to a Ki of 8.7 nM.
